SMILES strings stand for the structures. Entries after “also recorded” stand apart in the source; their conditions may differ.

Results on 2 compounds are retold here after patent publication US7435252B2, “Control of microorganisms in the sino-nasal tract” (priority 2003, dated 2008).

Assay [1] relates to Porphyromonas Gingivalis and Prevotella Intermedia. In words: Lethal photosensitization of oral pathogens in vitro, colony count after methylene blue stain and red-filtered halogen light. Format: cell-based. As for the experimental part:
Suitable stain dosages for providing lethal sensitization of oral pathogens are determined in vitro by the following procedure. An objective is to determine the minimum duration of light exposure and minimum agent dilution required to achieve at least a 50% reduction in bacteria counts. Experimental tests are performed on two common pathogens using a continuously working, high intensity, red filtered halogen lamp. Red light from the filtered halogen lamp is transmitted through a flexible light guide to radiate downwardly onto petri dishes containing samples of live bacteria of species Porphyromonas Gingivalis and Prevotella Intermedia using the protocols described below.
(§1) Bacteria. Prevotella Intermedia is isolated from patient sample material, identified in the laboratory using standard diagnostic test systems (Remel Inc., Lenexa, Kans., USA) and is maintained by twice-weekly subculture in thioglycollate medium (Becton Dickinson and Co, Sparks, Md., USA). P. gingivalis ATCC 33277 obtained from Remel Inc., is maintained by a twice-weekly subculture on CDC anaerobe blood agar (Becton Dickinson and Co, USA) and in thioglycollate medium (Becton Dickinson and Co, USA).
(§2) Light Source. The source for light energy is a continuously working, high intensity halogen lamp having a built-in 250-Watt quartz halogen light source, model 1-250 supplied by Medithon, New York, N.Y., USA. Such lights are customarily employed for ear, nose or throat procedures. The light is transmitted through a flexible light guide and filtered to maintain maximum energy output at wavelengths in the vicinity of about 650 nm using a broadband red filter (Edmund Optics Inc., Barrington, N.J., USA). The light output power density measured at 3 cm distance from the end of the light guide with filter is about 50 milliwatts/cm2.
Photosensitizer. […] Serial dilutions with water of initial solution with respective concentrations of 0.1%, 0.075%, 0.05%, 0.025% and 0.01% are prepared from the initial solution using sterile 10-ml bottles of normal saline and sterile syringes.
Lethal photosensitization of P. Intermedia. Petri dishes containing CDC anaerobe blood agar (Becton Dickinson and Co, USA) are inoculated with 0.5 ml of broth containing 5×10^5 CFU/ml and left closed at room temperature for about 10 minutes to let the broth penetrate the agar media. […] Only plates with concentrations of 0.01%, and 0.025% are used in the experiment with 20 min light exposure. Four plates are used for each experiment. […] The controls are covered to protect them from ambient light. […] A total of 108 subcultures is used for the experiment. Plates are incubated in anaerobic conditions in the jars using anaerobic pack kits (BBL GasPak Plus, Becton Dickinson and Co, Sparks, Md., USA) at 37° C. for 24 hours. Samples of the resulting culture growth are taken from each plate with sterile […] standard loop, dispensed in 1 ml of sterile NS and placed at the same media. Cultures are incubated at anaerobic conditions at 37° C. for another 24 hours, and after that the resulting colony count is performed on each plate.
Lethal photosensitization of P. Gingivalis. Serial dilutions of the P. gingivalis culture are prepared from the initial culture preserved on plates using 1:L sterile standard loop (Becton Dickinson and Co, USA) and sterile NS. AVitek calorimeter (Hach Company, Loveland, Colo., USA) is used to achieve a final concentration of about 5×10^3 CFU/ml from an initial 0.5 standard McFarland suspension of 10^8 CFU/ml. Plates containing CDC anaerobic blood agar (Becton Dickinson and Co, USA) are inoculated with the resulting suspension using sterile 10:L standard loops (Becton Dickinson and Co, USA). […] Plates are also incubated at 37° C. in the tightly closed jars supplied with anaerobic pack kits (BBL GasPak Plus, Becton Dickinson and Co, USA) for 24 hours, and the resulting colony count is performed on each plate.
Statistical analyses can be carried out using single-factor analysis of variance.

Another assay relates to P. gingivalis ATCC 33277. Kind of assay: Lethal photosensitization of P. Gingivalis, colony count. Format: cell-based, Porphyromonas Gingivalis.
Source text: as §1, §2
Photosensitizer. […] Serial dilutions with water of initial solution with respective concentrations of 0.1%, 0.075%, 0.05%, 0.025% and 0.01% are prepared from the initial solution using sterile 10-ml bottles of normal saline and sterile syringes. […]

Assay [2] relates to Porphyromonas Gingivalis and Prevotella Intermedia. Kind of assay: Lethal photosensitization of oral pathogens in vitro, colony count after methylene blue stain and red-filtered halogen light. It counts as cell-based. The note with it: methylene blue 0.001% or 0.025%, without halogen light.
For a further assay, the system named is Candida albicans. As to conditions: MB 450 and 500 microgram/mL, diode laser light 664 nm, 275 J/cm fiber length, 400 mW, 687.5 seconds, immunosuppressed murine model; cited from earlier work.
The test system of a further assay is E. Coli. The note with it: gram negative (E. Coli); cited from earlier work.
The test system of another assay is Staph aureus. As to conditions: gram positive (Staph aureus); cited from earlier work.

As for `CN(C)c1ccc2nc3ccc(=[N+](C)C)cc-3sc2c1` [methylene blue], the Reduction of bacteria entry in assay [1] (0.05% methylene blue alone, without exposure to light) is “insignificant”. For the same compound, the “difference between exposure for 10 and 20 minutes” value in assay [1] (either species, any concentration of methylene blue) is given as “No statistically significant difference”. For the same compound, the “reduction in bacteria counts” value in assay [1] (light exposure 1 min, methylene blue 0.05% and higher) is “Significant reduction in bacteria counts”; in assay [1] (light exposure 5 min, methylene blue 0.025%) it was “Significant reduction in bacteria counts”. The bactericidal effect result in assay [1] (methylene blue 0.01% or higher with red-filtered high-intensity light, exposure less than 10 minutes, accumulated energy 30 J/cm^2) is on record as “bactericidal effect”; in assay [1] (methylene blue 0.075% and 0.1%, without light exposure) it was “significant bactericidal effect; also recorded: significantly bactericidal”; in the assay on P. gingivalis ATCC 33277 (methylene blue 0.1%, P. gingivalis) it was “bactericidal effect”. Besides, the “killing with duration of light exposure” value in assay [1] (methylene blue 0.025%, time intervals 5 and 10 min, both cultures) was “statistically significant increased killing with duration”; in assay [1] (methylene blue 0.05%, time intervals 1 min, 5 min and 10 min, both cultures), “statistically significant increased killing with duration”. Also, the bacterial count reduction result in assay [1] (methylene blue 0.075% and 0.1%, light exposure 1 min, both cultures) is given as “statistically significant bacterial count reduction”. Further, the bacterial killing entry in the assay with P. gingivalis ATCC 33277 (methylene blue 0.01%, without light exposure, P. gingivalis culture) was “statistically significant bacterial killing”. Further, in assay [2], the killing bacteria result is recorded as “nor concentrations of methylene blue of 0.001% or 0.025%, without halogen light, appeared to be effective in killing bacteria”. In addition, the “eradication of Candida albicans” value in the assay with Candida albicans is listed as “totally eradicate”. Further, the phototoxicity entry with E. Coli and in the assay on Staph aureus was “bacterial cell death” each time.
As for `Cc1cc2nc3ccc(N(C)C)cc3[s+]c2cc1N.[Cl-]` [toluidine blue 0], the phototoxicity result in the assay with E. Coli and in the assay with Staph aureus was “bacterial cell death” each time.
